Several values for one entry are separate records, joined by “and”; a condition that tells them apart may be missing. Equal values may be shown once. Inconclusive results and toxic doses are left out.
Tested on: BDF1 mice, P388 leukemia ip, median survival T/C
Experiment: NCI In Vivo Anticancer Drug Screen. Data for tumor model P388 Leukemia (intraperitoneal) in B6D2F1 (BDF1) mice
Conditions: endpoint: median survival time, higher = longer survival
How it was run: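 Transplantable tumour in mice; compound vs vehicle dosing; survival scored; ratio of treated to control reported.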

## COC(=O)[C@@H](O)[C@](O)(CCC(C)C)C(=O)O[C@@H]1C(OC)=C[C@]23CCCN2CCc2cc4c(cc2[C@H]13)OCO4
dose: 0.25 mg/kg/injection, schedule: Q01DX009 (ip), vehicle: saline
  T/C: 115 % of control
dose: 0.25 mg/kg/injection, schedule: Q03HX008 (ip), vehicle: saline
  T/C: 115 % of control
dose: 0.25 mg/kg/injection, schedule: Q03HX016 (ip), vehicle: saline
  T/C: 120 % of control
dose: 0.38 mg/kg/injection, schedule: Q01DX010 (ip), vehicle: saline
  T/C: 118 % of control
dose: 0.41 mg/kg/injection, schedule: Q01DX009 (ip), vehicle: saline
  T/C: 108 % of control
dose: 0.5 mg/kg/injection, schedule: Q01DX006 (iv), vehicle: saline
  T/C: 100 % of control
dose: 0.5 mg/kg/injection, schedule: Q01DX009 (ip), vehicle: saline
  T/C: 110 % of control
dose: 0.5 mg/kg/injection, schedule: Q01DX009 (oral), vehicle: saline
  T/C: 110 % of control
dose: 0.5 mg/kg/injection, schedule: Q01DX009 (sc), vehicle: saline
  T/C: 110 % of control
dose: 0.5 mg/kg/injection, schedule: Q03HX008 (ip), vehicle: saline
  T/C: 110 % of control
dose: 0.5 mg/kg/injection, schedule: Q03HX016 (ip), vehicle: saline
  T/C: 120 % of control
dose: 0.62 mg/kg/injection, schedule: Q01DX009 (ip), vehicle: saline
  T/C: 108 % of control
dose: 1.0 mg/kg/injection, schedule: Q01DX006 (iv), vehicle: saline
  T/C: 110 % of control
dose: 1.0 mg/kg/injection, schedule: Q01DX009 (ip), vehicle: saline
  T/C: 120 % of control
dose: 1.0 mg/kg/injection, schedule: Q01DX009 (oral), vehicle: saline
  T/C: 110 % of control
dose: 1.0 mg/kg/injection, schedule: Q01DX009 (sc), vehicle: saline
  T/C: 110 % of control
dose: 1.0 mg/kg/injection, schedule: Q03HX008 (ip), vehicle: saline
  T/C: 120 % of control
dose: 1.0 mg/kg/injection, schedule: Q03HX024 (ip), vehicle: saline
  T/C: 200 % of control
dose: 1.0 mg/kg/injection, schedule: Q04DX003 (ip), vehicle: saline
  T/C: 110 % of control
dose: 1.5 mg/kg/injection, schedule: Q01DX009 (ip), vehicle: saline
  T/C: 118 % of control
dose: 1.87 mg/kg/injection, schedule: Q01DX009 (ip), vehicle: water
  T/C: 150 % of control and 161 % of control
dose: 2.0 mg/kg/injection, schedule: Q01DX001 (ip), vehicle: saline
  T/C: 100 % of control
dose: 2.0 mg/kg/injection, schedule: Q01DX001 (iv), vehicle: saline
  T/C: 110 % of control
dose: 2.0 mg/kg/injection, schedule: Q01DX001 (oral), vehicle: saline
  T/C: 110 % of control
dose: 2.0 mg/kg/injection, schedule: Q01DX001 (sc), vehicle: saline
  T/C: 110 % of control
dose: 2.0 mg/kg/injection, schedule: Q01DX006 (iv), vehicle: saline
  T/C: 120 % of control
dose: 2.0 mg/kg/injection, schedule: Q01DX009 (ip), vehicle: saline
  T/C: 120 % of control
dose: 2.0 mg/kg/injection, schedule: Q01DX009 (oral), vehicle: saline
  T/C: 110 % of control
dose: 2.0 mg/kg/injection, schedule: Q01DX009 (sc), vehicle: saline
  T/C: 115 % of control
dose: 2.0 mg/kg/injection, schedule: Q03HX016 (ip), vehicle: saline
  T/C: 177 % of control
dose: 2.0 mg/kg/injection, schedule: Q03HX024 (ip), vehicle: saline
  T/C: 222 % of control
dose: 2.0 mg/kg/injection, schedule: Q04DX003 (ip), vehicle: saline
  T/C: 115 % of control
dose: 2.0 mg/kg/injection, schedule: Q08DX002 (ip), vehicle: saline
  T/C: 110 % of control
dose: 3.0 mg/kg/injection, schedule: Q01DX010 (ip), vehicle: saline
  T/C: 181 % of control
dose: 3.75 mg/kg/injection, schedule: Q01DX009 (ip), vehicle: water
  T/C: 172 % of control and 188 % of control
dose: 4.0 mg/kg/injection, schedule: Q01DX001 (ip), vehicle: saline
  T/C: 110 % of control
dose: 4.0 mg/kg/injection, schedule: Q01DX001 (iv), vehicle: saline
  T/C: 105 % of control
dose: 4.0 mg/kg/injection, schedule: Q01DX001 (oral), vehicle: saline
  T/C: 110 % of control
dose: 4.0 mg/kg/injection, schedule: Q01DX001 (sc), vehicle: saline
  T/C: 110 % of control
dose: 4.0 mg/kg/injection, schedule: Q03HX008 (ip), vehicle: saline
  T/C: 166 % of control
dose: 4.0 mg/kg/injection, schedule: Q04DX003 (ip), vehicle: saline
  T/C: 110 % of control
dose: 4.0 mg/kg/injection, schedule: Q08DX002 (ip), vehicle: saline
  T/C: 105 % of control
dose: 6.0 mg/kg/injection, schedule: Q01DX009 (ip), vehicle: saline
  T/C: 163 % of control
dose: 6.0 mg/kg/injection, schedule: Q01DX010 (ip), vehicle: saline
  T/C: 182 % of control
dose: 7.5 mg/kg/injection, schedule: Q01DX009 (ip), vehicle: saline
  T/C: 195 % of control
dose: 7.5 mg/kg/injection, schedule: Q01DX009 (ip), vehicle: water
  T/C: 266 % of control and 272 % of control
dose: 8.0 mg/kg/injection, schedule: Q01DX001 (ip), vehicle: saline
  T/C: 110 % of control
dose: 8.0 mg/kg/injection, schedule: Q01DX001 (iv), vehicle: saline
  T/C: 110 % of control
dose: 8.0 mg/kg/injection, schedule: Q01DX001 (oral), vehicle: saline
  T/C: 105 % of control
dose: 8.0 mg/kg/injection, schedule: Q01DX001 (sc), vehicle: saline
  T/C: 100 % of control
dose: 8.0 mg/kg/injection, schedule: Q01DX006 (iv), vehicle: saline
  T/C: 188 % of control
dose: 8.0 mg/kg/injection, schedule: Q01DX009 (ip), vehicle: saline
  T/C: 235 % of control and 172 % of control and 222 % of control
dose: 8.0 mg/kg/injection, schedule: Q01DX009 (oral), vehicle: saline
  T/C: 200 % of control
dose: 8.0 mg/kg/injection, schedule: Q01DX009 (sc), vehicle: saline
  T/C: 200 % of control and 205 % of control
dose: 12.0 mg/kg/injection, schedule: Q01DX010 (ip), vehicle: saline
  T/C: 208 % of control
dose: 15.0 mg/kg/injection, schedule: Q01DX009 (ip), vehicle: water
  T/C: 105 % of control
dose: 16.0 mg/kg/injection, schedule: Q01DX001 (ip), vehicle: saline
  T/C: 110 % of control
dose: 16.0 mg/kg/injection, schedule: Q01DX001 (iv), vehicle: saline
  T/C: 120 % of control
dose: 16.0 mg/kg/injection, schedule: Q01DX001 (oral), vehicle: saline
  T/C: 115 % of control
dose: 16.0 mg/kg/injection, schedule: Q01DX001 (sc), vehicle: saline
  T/C: 110 % of control
dose: 16.0 mg/kg/injection, schedule: Q01DX009 (ip), vehicle: saline
  T/C: 305 % of control and 209 % of control
dose: 16.0 mg/kg/injection, schedule: Q01DX009 (oral), vehicle: saline
  T/C: 161 % of control
dose: 16.0 mg/kg/injection, schedule: Q01DX009 (sc), vehicle: saline
  T/C: 105 % of control
dose: 16.0 mg/kg/injection, schedule: Q04DX003 (ip), vehicle: saline
  T/C: 150 % of control
dose: 24.0 mg/kg/injection, schedule: Q01DX010 (ip), vehicle: saline
  T/C: 252 % of control
dose: 32.0 mg/kg/injection, schedule: Q08DX002 (ip), vehicle: saline
  T/C: 111 % of control
dose: 125.0 micrograms/kg/injection, schedule: Q03HX024 (ip), vehicle: saline
  T/C: 100 % of control
dose: 250.0 micrograms/kg/injection, schedule: Q03HX024 (ip), vehicle: saline
  T/C: 110 % of control
dose: 500.0 micrograms/kg/injection, schedule: Q03HX024 (ip), vehicle: saline
  T/C: 120 % of control

From PubChem BioAssay AID328 (DTP/NCI, 2004)
